US20240408169A1 (priority 2023, published 2024)
Where two headings read alike, the source gives them in different places. *1 amine or outer side, *2 acyl side, *3 side chain or, on linkers, in order; H or OH if unused. Where a SMILES comes first, the peptide text is derived from it. Bridges are numbered along the chain shown (N, C = ends). [ ]: non-standard residue; d: D form. The star is where a group is joined. X205 = CC(C)C(=O)N1[C@@H]2COC[C@H]1C=C(c1ccc(F)cc1C[C@@H](C(=O)[*:2])N(C)[*:1])C2; X157 = CN([C@@H](Cc1cc(Cl)ccc1-c1ccc(S(=O)(=O)N2CCOCC2)cc1)C(=O)[*:2])[*:1]; X198 = COC[C@H]1COCCN1c1ccc(-c2ccc(Cl)cc2C[C@@H](C(=O)[*:2])N(C)[*:1])cc1; X42 = CN([C@@H](Cc1cc(Cl)ccc1-c1cnn(S(=O)(=O)C2CC2)c1)C(=O)[*:2])[*:1]; X134 = CN([C@@H](Cc1cc(Cl)ccc1-c1cnc2[nH]c(O)cc2c1)C(=O)[*:2])[*:1]; X68 = CN([C@@H](Cc1cc(Cl)ccc1-c1cnn(C2CC2)c1)C(=O)[*:2])[*:1]; NMehhhLys(Me) = CN([C@@H](CCCCCCCN(C)[*:3])C(=O)[*:2])[*:1]; X174 = CN([C@@H](Cc1cc(Cl)cnc1-c1cnn(C)c1)C(=O)[*:2])[*:1]; X112 = CN([C@@H](Cc1cc(F)ccc1-c1cnn(C)c1)C(=O)[*:2])[*:1]; X199 = CN([C@@H](Cc1cc(Cl)ccc1C1=CCOC1)C(=O)[*:2])[*:1]; NMe(hhhLys) = CN([C@@H](CCCCCCCN[*:3])C(=O)[*:2])[*:1]; Oxane2carbonyl(2R-CF3) = O=C([C@@]1(C(F)(F)F)CCCCO1)*; X152 = CN([C@@H](Cc1cc(Cl)ccc1OC1CC1)C(=O)[*:2])[*:1]; X132 = CN([C@@H](Cc1cc(Cl)cc2ccoc12)C(=O)[*:2])[*:1]; cBuCO(3,3-F2-1-CF3) = O=C(C1(C(F)(F)F)CC(F)(F)C1)*; X133 = Cc1ncc(Cl)cc1C[C@@H](C(=O)[*:2])N(C)[*:1]; Pro(trans-4-F) = O=C(O)[C@@H]1C[C@@H](F)CN1; Gly(cPr) = N[C@H](C(=O)O)C1CC1

Experiments:
CyclinA2/CDK2 = target: T1, CyclinA2/CDK2 (Homo sapiens, UniProt P20248); test: Fluorescence Polarization (FP) competitive binding assay, Cyclin A2/Cdk2;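 also: plates equilibrated two hours at room temperature before polarization reading, IC50 fitted from eight-concentration compound titration curves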
T1 construct: purchased CRELUX Protein Services

CyclinB1/CDK1 = target: T2, CyclinB1/CDK1 (Homo sapiens, UniProt P14635); test: Fluorescence Polarization (FP) competitive binding assay, Cyclin B1/Cdk1;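 also: fluorescence polarization read after equilibration at room temperature, with IC50 taken from serially diluted dose-response curves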
T2 construct: purchased Eurofins, discovery 14-450

CyclinE1/CDK2 = target: T3, CyclinE1/CDK2 (Homo sapiens, UniProt P24864); test: Fluorescence Polarization (FP) competitive binding assay, Cyclin E1/Cdk2;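 also: readings taken after two-hour equilibration at room temperature in HEPES buffer with NaCl, DTT, NP-40 and BSA, IC50 fitted from eight-concentration serial dilution series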
T3 construct: purchased Eurofins, discovery 14-475

NCI-H1048 cells = test: MTT proliferation assay, NCI-H1048; type: cell-based; settings: 5 days compound exposure, 1:3 serial dilution starting at 10 μM;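 also: Dose-response in 96-well plates over 8 or 10 concentration points, with exposure spanning 3-4 cell doublings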
OVCAR3 cells = test: MTT proliferation assay, OVCAR3; type: cell-based; settings: 5 days compound exposure, 1:3 serial dilution starting at 10 μM;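 also: compound given as an 8- or 10-point series, one day after plating, with exposure covering roughly 3-4 cell doublings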
[1] = 8 nM Cyclin A2/Cdk2, 2 nM FAM probe; average of 2-3 independent experiments; read-out: Cyclin A FP IC50
[2] = 10 nM Cyclin B1/Cdk1, 2 nM FAM probe; average of 2-3 independent experiments; read-out: Cyclin B FP IC50
[3] = 10 nM Cyclin E1/Cdk2, 2 nM FAM probe, average of 2-3 independent experiments, read-out: Cyclin E FP IC50
[4] = read-out: Cyclin A FP IC50; 8 nM Cyclin A2/Cdk2, 2 nM FAM probe; average of 2-3 independent experiments
[5] = read-out: Cyclin B FP IC50; 10 nM Cyclin B1/Cdk1, 2 nM FAM probe; average of 2-3 independent experiments

| Structure (SMILES) | IC50 (CyclinA2/CDK2; [1]) [nM] | IC50 (CyclinB1/CDK1; [2]) [nM] | IC50 (CyclinE1/CDK2; [3]) [nM] | GI50 (NCI-H1048 cells) [nM] | GI50 (OVCAR3 cells) [nM] | IC50 (CyclinA2/CDK2; [4]) [nM] | IC50 (CyclinB1/CDK1; [5]) [nM] | IC50 (CyclinE1/CDK2) [nM] |
| --- | --- | --- | --- | --- | --- | --- | --- | --- |
| CC(C)C[C@@H]1NC(=O)[C@@H](N(C)C(=O)[C@@H](NC(=O)[C@@H]2C[C@@H](F)CN2C(=O)C2(C(F)(F)F)CC(F)(F)C2)C2CC2)CCCCCCCN(C)C(=O)[C@H](Cc2cc(Cl)ccc2OC2CC2)N(C)C1=O [Example 314] ({cBuCO(3,3-F2-1-CF3)}-[Pro(trans-4-F)][Gly(cPr)][NMehhhLys(Me)]L[X152]; lactam 3-C) | 30 | 20 | 140 | 10 | 10 | – | – | – |
| CC(C)C[C@@H]1NC(=O)[C@@H](N(C)C(=O)[C@@H](NC(=O)[C@@H]2C[C@@H](F)CN2C(=O)C2(C(F)(F)F)CC(F)(F)C2)C2CC2)CC=CCCCCNC(=O)[C@H](Cc2cc(Cl)cnc2OC2CC2)N(C)C1=O (single isomer, unassigned) [Example 102-P2] | 120 | 20 | 310 | 80 | 130 | – | – | – |
| CC(C)C[C@@H]1NC(=O)[C@@H](N(C)C(=O)[C@@H](NC(=O)[C@@H]2C[C@@H](F)CN2C(=O)C2(C(F)(F)F)CC(F)(F)C2)C2CC2)CCCCCCCN(C)C(=O)[C@H](Cc2cc(Cl)cc3ccoc23)N(C)C1=O [Example 394] ({cBuCO(3,3-F2-1-CF3)}-[Pro(trans-4-F)][Gly(cPr)][NMehhhLys(Me)]L[X132]; lactam 3-C) | 150 | 20 | 500 | 90 | 50 | – | – | – |
| CC(C)C[C@@H]1NC(=O)[C@@H](N(C)C(=O)[C@@H](NC(=O)[C@@H]2C[C@@H](F)CN2C(=O)C2(C(F)(F)F)CC(F)(F)C2)C2CC2)CCCCCCCNC(=O)[C@H](Cc2cc(Cl)ccc2-c2cnn(S(=O)(=O)C3CC3)c2)N(C)C1=O [Example 300] ({cBuCO(3,3-F2-1-CF3)}-[Pro(trans-4-F)][Gly(cPr)][NMe(hhhLys)]L[X42]; lactam 3-C) | 30 | 20 | 680 | 30 | 40 | – | – | – |
| CC(=O)N1CC=C(c2ccc(Cl)cc2C[C@H]2C(=O)NCCCC=CCC[C@H](N(C)C(=O)[C@@H](NC(=O)[C@@H]3C[C@@H](F)CN3C(=O)C3(C(F)(F)F)CC(F)(F)C3)C3CC3)C(=O)N[C@@H](CC(C)C)C(=O)N2C)CC1 [Example 267] | 20 | 20 | 1950 | 50 | 40 | – | – | – |
| CC(C)C[C@@H]1NC(=O)[C@@H](N(C)C(=O)[C@@H](NC(=O)[C@@H]2C[C@@H](F)CN2C(=O)[C@@]2(C(F)(F)F)CCCCO2)C2CC2)CCCCCCCN(C)C(=O)[C@H](Cc2cc(Cl)cnc2-c2cnn(C)c2)N(C)C1=O [Example 248] ({Oxane2carbonyl(2R-CF3)}-[Pro(trans-4-F)][Gly(cPr)][NMehhhLys(Me)]L[X174]; lactam 3-C) | – | – | – | 40 | 20 | 20 | 20 | 100 |
| CC(C)C[C@@H]1NC(=O)[C@@H](N(C)C(=O)[C@@H](NC(=O)[C@@H]2C[C@@H](F)CN2C(=O)C2(C(F)(F)F)CC(F)(F)C2)C2CC2)CCCCCCCN(C)C(=O)[C@H](Cc2cc(Cl)ccc2-c2cnc3[nH]c(O)cc3c2)N(C)C1=O [Example 272] ({cBuCO(3,3-F2-1-CF3)}-[Pro(trans-4-F)][Gly(cPr)][NMehhhLys(Me)]L[X134]; lactam 3-C) | 50 | 20 | 1600 | 90 | 430 | – | – | – |
| CC(C)C[C@@H]1NC(=O)[C@@H](N(C)C(=O)[C@@H](NC(=O)[C@@H]2C[C@@H](F)CN2C(=O)C2(C(F)(F)F)CC(F)(F)C2)C2CC2)CCCCCCCN(C)C(=O)[C@H](Cc2cc(Cl)ccc2-c2ccc(S(=O)(=O)N3CCOCC3)cc2)N(C)C1=O [Example 354] ({cBuCO(3,3-F2-1-CF3)}-[Pro(trans-4-F)][Gly(cPr)][NMehhhLys(Me)]L[X157]; lactam 3-C) | 30 | 20 | 1340 | 10 | 20 | – | – | – |
| CC(=O)N1CC=C(c2ccc(Cl)cc2C[C@H]2C(=O)N(C)CCCCCC[C@H](N(C)C(=O)[C@@H](NC(=O)[C@@H]3C[C@@H](F)CN3C(=O)C3(C(F)(F)F)CC(F)(F)C3)C3CC3)C(=O)N[C@@H](CC(C)C)C(=O)N2C)CC1 [Example 74] | 50 | 20 | 3620 | 110 | 170 | – | – | – |
| CC(C)C[C@H]1NC(=O)[C@H](N(C)C(=O)[C@H](NC(=O)[C@H]2C[C@H](F)CN2C(=O)C2(C#N)CCC2)C2CC2)CCCCCCCN(C)C(=O)[C@@H](Cc2cc(Cl)ccc2-c2cnn(C)c2)N(C)C1=O [Example 82] | 20 | 20 | 220 | 30 | 70 | – | – | – |
| COC[C@H]1COCCN1c1ccc(-c2ccc(Cl)cc2C[C@H]2C(=O)N(C)CCCCCCC[C@H](N(C)C(=O)[C@@H](NC(=O)[C@@H]3C[C@@H](F)CN3C(=O)C3(C(F)(F)F)CC(F)(F)C3)C3CC3)C(=O)N[C@@H](CC(C)C)C(=O)N2C)cc1 [Example 373] ({cBuCO(3,3-F2-1-CF3)}-[Pro(trans-4-F)][Gly(cPr)][NMehhhLys(Me)]L[X198]; lactam 3-C) | 20 | 20 | 480 | 10 | 10 | – | – | – |
| Cc1nnc(-c2ccc(Cl)cc2C[C@H]2C(=O)N(C)CCCCC=CC[C@H](N(C)C(=O)[C@@H](NC(=O)[C@@H]3C[C@@H](F)CN3C(=O)C3(C(F)(F)F)CC(F)(F)C3)C3CC3)C(=O)N[C@@H](CC(C)C)C(=O)N2C)o1 [Example 116] | 40 | 20 | 330 | 40 | 50 | – | – | – |
| CC(C)C[C@@H]1NC(=O)[C@@H](N(C)C(=O)[C@@H](NC(=O)[C@@H]2C[C@@H](F)CN2C(=O)C2(C(F)(F)F)CC(F)(F)C2)C2CC2)CCCCCCCN(C)C(=O)[C@H](Cc2cc(Cl)ccc2C2=CCOC2)N(C)C1=O [Example 209] ({cBuCO(3,3-F2-1-CF3)}-[Pro(trans-4-F)][Gly(cPr)][NMehhhLys(Me)]L[X199]; lactam 3-C) | – | – | – | 10 | 20 | 20 | 20 | 540 |
| CC(C)C[C@@H]1NC(=O)[C@@H](N(C)C(=O)[C@@H](NC(=O)[C@@H]2C[C@@H](F)CN2C(=O)C2(C(F)(F)F)CC(F)(F)C2)C2CC2)CCCCCCCNC(=O)[C@H](Cc2cc(F)ccc2-c2cnn(C)c2)N(C)C1=O [Example 215] ({cBuCO(3,3-F2-1-CF3)}-[Pro(trans-4-F)][Gly(cPr)][NMe(hhhLys)]L[X112]; lactam 3-C) | – | – | – | 10 | 10 | 20 | 20 | 200 |
| CC(C)C[C@@H]1NC(=O)[C@@H](N(C)C(=O)[C@@H](NC(=O)[C@@H]2C[C@@H](F)CN2C(=O)C2(C(F)(F)F)CC(F)(F)C2)C2CC2)CC=CCCCCN(C)C(=O)[C@H](Cc2cc(F)ccc2-c2cnn(S(C)(=O)=O)c2)N(C)C1=O [Example 87] | 180 | 20 | 890 | 50 | 60 | – | – | – |
| COCn1cc(-c2ccc(Cl)cc2C[C@H]2C(=O)N(C)CCCCC=CC[C@H](N(C)C(=O)[C@@H](NC(=O)[C@@H]3C[C@@H](F)CN3C(=O)C3(C(F)(F)F)CC(F)(F)C3)C3CC3)C(=O)N[C@@H](CC(C)C)C(=O)N2C)cn1 [Example 79] | 50 | 20 | 630 | 30 | 40 | – | – | – |
| CC(C)C[C@@H]1NC(=O)[C@@H](N(C)C(=O)[C@@H](NC(=O)[C@@H]2C[C@@H](F)CN2C(=O)C2(C(F)(F)F)CC(F)(F)C2)C2CC2)CCCCCCCNC(=O)[C@H](Cc2cc(F)ccc2C2=C[C@@H]3COC[C@H](C2)N3C(=O)C(C)C)N(C)C1=O [Example 325] ({cBuCO(3,3-F2-1-CF3)}-[Pro(trans-4-F)][Gly(cPr)][NMe(hhhLys)]L[X205]; lactam 3-C) | 20 | 20 | 300 | 10 | 10 | – | – | – |
| Cc1ncc(Cl)cc1C[C@H]1C(=O)NCCCCCCC[C@H](N(C)C(=O)[C@@H](NC(=O)[C@@H]2C[C@@H](F)CN2C(=O)C2(C(F)(F)F)CC(F)(F)C2)C2CC2)C(=O)N[C@@H](CC(C)C)C(=O)N1C [Example 331, (2S,4R)—N—((S)-2-(((3S,6S,9S)-3-((5-chloro-2-methylpyridin-3-yl)methyl)-6-isobutyl-4-methyl-2,5,8-trioxo-1,4,7-triazacyclohexadecan-9-yl)(methyl)amino)-1-cyclopropyl-2-oxoethyl)-1-(3,3-difluoro-1-(trifluoromethyl)cyclobutane-1-carbonyl)-4-fluoropyrrolidine-2-carboxamide] ({cBuCO(3,3-F2-1-CF3)}-[Pro(trans-4-F)][Gly(cPr)][NMe(hhhLys)]L[X133]; lactam 3-C) | 170 | 20 | 1140 | 60 | 50 | – | – | – |
| CC(C)C[C@@H]1NC(=O)[C@@H](N(C)C(=O)[C@@H](NC(=O)[C@@H]2C[C@@H](F)CN2C(=O)C2(C(F)(F)F)CC(F)(F)C2)C2CC2)CCCCCCCNC(=O)[C@H](Cc2cc(Cl)ccc2-c2cnn(C3CC3)c2)N(C)C1=O [Example 67] ({cBuCO(3,3-F2-1-CF3)}-[Pro(trans-4-F)][Gly(cPr)][NMe(hhhLys)]L[X68]; lactam 3-C) | 20 | 20 | 500 | 10 | 10 | – | – | – |
